Results reported in paper PMC3482300 (Nature, 2012).

Tests used:
NTS1 [1] = details: cited from earlier work
NTS1-GW5 = NTS1-GW5 (Rattus norvegicus, UniProt P20789, A86L/E166A/F358A/G215A/L310A/V360A); assay: Competition of [3H]NT binding by SR48692, NTS1-GW5
NTS1 [2] = details: cited from earlier work; remark: listed apart in the source

Sequence of NTS1-GW5 (P20789 43-396 A86L/E166A/G215A/L310A/F358A/V360A): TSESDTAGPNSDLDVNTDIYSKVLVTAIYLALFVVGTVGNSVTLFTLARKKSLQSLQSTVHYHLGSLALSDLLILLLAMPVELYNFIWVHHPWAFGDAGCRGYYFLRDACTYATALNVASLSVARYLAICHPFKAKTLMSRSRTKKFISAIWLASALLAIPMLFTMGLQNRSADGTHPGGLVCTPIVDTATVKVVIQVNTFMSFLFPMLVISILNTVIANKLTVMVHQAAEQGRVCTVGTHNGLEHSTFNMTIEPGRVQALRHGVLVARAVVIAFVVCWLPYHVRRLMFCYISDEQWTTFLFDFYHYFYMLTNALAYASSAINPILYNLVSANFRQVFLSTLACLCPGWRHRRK

## KIPYIL [neuromedin N]
NTS1 [1]
  binding to NTS1: binds

## COc1cccc(OC)c1-c1cc(C(=O)NC2(C(=O)O)C3CC4CC(C3)CC2C4)nn1-c1ccnc2cc(Cl)ccc12 (stereo not shown) [SR48692]
NTS1-GW5
  apparent affinity for SR48692 compared to wild-type: lower

## Arg-Arg-Pro-Tyr-Ile-Leu [NT8-13]
NTS1 [2]
  efficacy compared to full-length NT: higher potency and efficacy
  potency compared to full-length NT: higher potency
